From patent US20180141913A1 (EISAI R & D MANAGEMENT CO., LTD., priority 2016, published 2018)
Where two headings read alike, the source gives them in different places.

Columns and labels:
[1] = tested on: MCF7-Y537S cells (MCF7 ER-alpha Y537S mutant); assay: In vitro proliferation (viability) assay, MCF7-Y537S cells; type: cell-based; conditions: Homo sapiens
Protocol: (§1) MCF7 BUS cells (Coser, et al., (2003) PNAS 100(24): 13994-13999) were maintained in Dulbecco's Modified Eagle Medium supplemented with 10% FBS, 4 mM L-glutamine and 1× non-essential amino acids. Lenti-X 293T cells (Clontech, Cat #632180) were routinely cultured in Dulbecco's Modified Eagle Medium supplemented with 10% FBS.
(§2) The QuikChange II XL Site-Directed Mutagenesis Kit (Agilent Technologies, Cat #200523) was used to generate Y537S, Y537C, Y537N and D538G mutations within the ERα exon 8. Wild-type ESR1 cDNA (GeneCopoeia Inc., Cat# GC-A0322, accession no. NM 000125) was used as a template with the following mutagenesis primers (where the underlined nucleotides represent site mutations); Y537S: F-AAGAACGTGGTGCCCCTCTCTGACCTGCTGCTGGAGATG (SEQ ID NO: 1), R-CATCTCCAGCAGCAGGTCAGAGAGGGGCACCACGTTCTT (SEQ ID NO: 2); Y537N: F-AAGAACGTGGTGCCCCTCAATGACCTGCTGCTGGAGATG (SEQ ID NO: 3), R-CATCTCCAGCAGCAGGTCATTGAGGGGCACCACGTTCTT (SEQ ID NO: 4); Y537C: F-AAGAACGTGGTGCCCCTCTGTGACCTGCTGCTGGAGATG (SEQ ID NO: 5), R-CATCTCCAGCAGCAGGTCACAGAGGGGCACCACGTTCTT (SEQ ID NO: 6); D538G: F-AACGTGGTGCCCCTCTATGGCCTGCTGCTGGAGATGCTG (SEQ ID NO: 7), R-CAGCATCTCCAGCAGCAGGCCATAGAGGGGCACCACGTT (SEQ ID NO: 8). WT and mutant ESR1 cDNAs were cloned into the designation lentiviral vector pLenti6.3/V5-Dest (Invitrogen, Cat #V533-06). To make lentivirus, DNAs (WT and mutant ESR1) were co-transfected with packaging plasmids into Lenti-X 293T cells using TransIT (Mirus, Cat #MIR 2700). 48 h post-transfection, virus containing media was filtered and added to MCF7 cells in the presence of 8 µg/ml polybrene overnight. Two days following infection, cells were placed under selection with 10 µg/ml blasticidin for 2 weeks for stable expression.
(§3) MCF7-WT and -Y537S cells were seeded at 1500 cells/well in black-walled 96-well plates (assay plates, Costar, Cat #3904). In parallel, cells were also seeded in a separate 96-well plate (8 wells/cell line, control plate) for which a CTG (CellTiter-Glo® Luminescent Viability Assay, Promega, Cat #G7572) was measured the following day (day 0 reading). The day 0 reading was used for the GI50 calculation at the termination of the experiment. The day following seeding, compounds were added to assay plates. Briefly, a 1:4 serial dilution was prepared in DMSO at 200× final concentration for a total of 10 concentrations (9 dilutions containing compound and one is DMSO only). Serially diluted compounds were pipetted into medium to prepare a compound-medium mix at 10× final concentration. 10 μl of compound-medium mix was added to MCF7-WT and -Y537S cells at 3 wells/concentration (triplicate for each concentration). On day 3, media/compound was removed and replaced with fresh media/compound as described above. On day 6, CTG was measured and compared to day 0 readings from control plate to assess GI50.

[2] = tested on: MCF7-WT cells (MCF7 ER-alpha wildtype); assay: In vitro proliferation (viability) assay, MCF7-WT cells; type: cell-based; conditions: Homo sapiens
Protocol: as §1, §2, §3

[3] = MCF7, CellTiter-Glo, day 6 vs day 0, average ± standard deviation, free base and/or salt forms, read-out: MCF7 Y537S GI50
[4] = MCF7, CellTiter-Glo, day 6 vs day 0, average ± standard deviation, free base and/or salt forms, read-out: MCF7 WT GI50
[5] = MCF7, read-out: MCF7 Y537S GI50 (nM)
[6] = MCF7, read-out: MCF7 WT GI50 (nM)

SMILES | GI50 [1, 3] | GI50 [2, 4] | GI50 [1, 5] | GI50 [2, 6]
CN(C)C(=O)CCCNCCOc1ccc(/C(=C(/CC(F)(F)F)c2ccccc2)c2ccc3[nH]nc(F)c3c2)cc1 [Compound 1, (E)-N,N-dimethyl-4-((2-(4-(4,4,4-trifluoro-1-(3-fluoro-1H-indazol-5-yl)-2-phenylbut-1-en-1-yl)phenoxy)ethyl)amino)butanamide] | 3.79 ± 1.92 nM | 0.36 ± 0.16 nM |  | 
CC/C(=C(/c1ccc(OCCNCCCC(=O)N(C)C)cc1)c1ccc2[nH]ncc2c1)c1ccccc1 [Compound 4, (E)-4-(2-(4-(1-(1H-indazol-5-yl)-2-phenylbut-1-enyl)phenoxy)ethylamino)-N,N-dimethylbutanamide] | 46.4 ± 23.2 nM | 4.09 ± 2.74 nM |  | 
CNC(=O)/C=C/CNCCOc1ccc(/C(CC(F)(F)F)=C(\c2ccccc2)c2ccc3[nH]nc(F)c3c2)cn1 [Compound 5, (E)-N-methyl-4-((2-((5-((E)-4,4,4-trifluoro-1-(3-fluoro-1H-indazol-5-yl)-1-phenylbut-1-en-2-yl)pyridin-2-yl)oxy)ethyl)amino)but-2-enamide] | 180 ± 227 nM | 88.5 ± 42.7 nM |  | 
CNC(=O)/C=C/CCNCCOc1ccc(/C(=C(/CC(F)(F)F)c2ccccc2)c2ccc3[nH]nc(F)c3c2)cn1 [Compound 6, (E)-N-methyl-5-((2-((5-((Z)-4,4,4-trifluoro-1-(3-fluoro-1H-indazol-5-yl)-2-phenylbut-1-en-1-yl)pyridin-2-yl)oxy)ethyl)amino)pent-2-enamide] | 5.5 ± 0.47 nM | 0.38 nM |  | 
CNC(=O)CCCCNCCOc1ccc(/C(=C(/CC(F)(F)F)c2ccccc2)c2ccc3[nH]nc(F)c3c2)cn1 [Compound 8, (Z)-N-methyl-5-((2-((5-(4,4,4-trifluoro-1-(3-fluoro-1H-indazol-5-yl)-2-phenylbut-1-en-1-yl)pyridin-2-yl)oxy)ethyl)amino)pentanamide] | 14.7 ± 0.55 nM | 0.7 ± 0.27 nM |  | 
CNC(=O)/C=C/CNCCOc1ccc(/C(=C(\c2ccccc2)C2CCC2)c2ccc3[nH]ncc3c2)cc1 [Compound 11, (E)-4-((2-(4-((E)-2-cyclobutyl-1-(1H-indazol-5-yl)-2-phenylvinyl)phenoxy)ethyl)amino)-N-methylbut-2-enamide] | 32.7 ± 22.2 nM | 2.08 ± 1.55 nM |  | 
O=C1CCCN1CCOc1ccc(/C(=C(/CC(F)(F)F)c2ccccc2)c2ccc3[nH]nc(F)c3c2)cn1 [Compound 12, (Z)-1-(2-((5-(4,4,4-trifluoro-1-(3-fluoro-1H-indazol-5-yl)-2-phenylbut-1-en-1-yl)pyridin-2-yl)oxy)ethyl)pyrrolidin-2-one] | 24 nM | 1.45 nM |  | 
O=C(/C=C/CNCCOc1ccc(/C(=C(/CC(F)(F)F)c2ccccc2)c2ccc3[nH]ncc3c2)cc1)N1CCCC1 [Compound 14, (E)-1-(pyrrolidin-1-yl)-4-((2-(4-((E)-4,4,4-trifluoro-1-(1H-indazol-5-yl)-2-phenylbut-1-en-1-yl)phenoxy)ethyl)amino)but-2-en-1-one] | 7.65 ± 3.38 nM | 1.73 ± 0.14 nM |  | 
O=C(/C=C/CNCCOc1ccc(/C(=C(/CC(F)(F)F)c2ccccc2)c2ccc3[nH]nc(F)c3c2)cn1)N1CCOCC1 [Compound 18, (E)-1-morpholino-4-(2-(5-((Z)-4,4,4-trifluoro-1-(3-fluoro-1H-indazol-5-yl)-2-phenylbut-1-enyl)pyridin-2-yloxy)ethylamino)but-2-en-1-one] | 4.91 ± 0.65 nM | 0.72 ± 0.24 nM |  | 
O=C(/C=C/CNCCOc1ccc(/C(=C(/CC(F)(F)F)c2ccccc2)c2ccc3[nH]ncc3c2)cn1)N1CCOCC1 [Compound 19, (E)-1-morpholino-4-((2-((5-((Z)-4,4,4-trifluoro-1-(1H-indazol-5-yl)-2-phenylbut-1-en-yl)pyridin-2-yl)oxy)ethyl)amino)but-2-en-1-one] | 3.15 ± 0.01 nM | 0.66 ± 0.05 nM |  | 
COCCNC(=O)/C=C/CNCCOc1ccc(/C(=C(/CC(F)(F)F)c2ccccc2)c2ccc3[nH]nc(F)c3c2)cn1 [Compound 20, (E)-N-(2-methoxyethyl)-4-((2-((5-((Z)-4,4,4-trifluoro-1-(3-fluoro-1H-indazol-5-yl)-2-phenylbut-1-en-1-yl)pyridin-2-yl)oxy)ethyl)amino)but-2-enamide] | 6.08 ± 2.69 nM | 0.66 ± 0.13 nM |  | 
Cl.[2H]C([2H])([2H])N(C(=O)/C=C/CNCCOc1ccc(/C(=C(/CC(F)(F)F)c2ccccc2)c2ccc3[nH]nc(F)c3c2)cn1)C([2H])([2H])[2H] [Compound 24, (E)-N,N-di(^2H3)methyl-4-((2-((5-((Z)-4,4,4-trifluoro-1-(3-fluoro-1H-indazol-5-yl)-2-phenylbut-1-en-1-yl)pyridin-2-yl)oxy)ethyl)amino)but-2-enamide] |  |  | 3.34 ± 1.14 nM | 0.45 ± 0.11 nM
Cl.[2H]C([2H])([2H])N(C(=O)/C=C/CNCCOc1ccc(/C(=C(/CC(F)(F)F)c2ccccc2)c2ccc3[nH]ncc3c2)cn1)C([2H])([2H])[2H] [Compound 25, (E)-N,N-di(H3)methyl-4-((2-((5-((Z)-4,4,4-trifluoro-1-(1H-indazol-5-yl)-2-phenylbut-1-en-1-yl)pyridin-2-yl)oxy)ethyl)amino)but-2-enamide] | 1.58 ± 0.23 nM | 0.38 ± 0.16 nM |  | 
CC/C(=C(/c1ccc(OCCNC/C=C/C(=O)NC)nc1)c1ccc2[nH]ncc2c1)c1ccccc1 [Compound 28, (E)-4-((2-((5-((Z)-1-(1H-indazol-5-yl)-2-phenylbut-1-en-1-yl)pyridin-2-yl)oxy)ethyl)amino)-N-methylbut-2-enamide] | 9.08 ± 5.26 nM | 4.12 ± 1.6 nM |  | 
O=C(/C=C/CNCCOc1ccc(/C(=C(\c2ccccc2)C2CCC2)c2ccc3[nH]ncc3c2)cc1)N1CCCC1 [Compound 35] | 27.3 ± 19.9 nM | 3.06 ± 0.25 nM |  | 
O=C(CCCNCCOc1ccc(/C(=C(/CC(F)(F)F)c2ccccc2)c2ccc3[nH]nc(F)c3c2)cc1)N1CCCC1 [Compound 41, (E)-1-(pyrrolidin-1-yl)-4-((2-(4-(4,4,4-trifluoro-1-(3-fluoro-1H-indazol-5-yl)-2-phenylbut-1-en-1-yl)phenoxy)ethyl)amino)butan-1-one] | 9.38 ± 7.61 nM | 0.24 ± 0.04 nM |  | 
O=C(CCCNCCOc1ccc(/C(=C(/CC(F)(F)F)c2ccccc2)c2ccc3[nH]nc(F)c3c2)cn1)N1CCCC1 [Compound 43] |  |  | 3.21 nM | 0.15 nM
CNC(=O)/C=C/CNCCOc1ncc(/C(=C(/CC(F)(F)F)c2ccccc2)c2ccc3[nH]nc(F)c3c2)cn1 [Compound 45, (E)-N-methyl-4-((2-((5-((Z)-4,4,4,4-trifluoro-1-(3-fluoro-1H-indazol-5-yl)-2-phenylbut-1-en-1-yl)pyrimidin-2-yl)oxy)ethyl)amino)but-2-enamide] | 71 ± 8.63 nM | 23.2 ± 9.42 nM |  | 
CNC(=O)/C=C/CNCCOc1ccc(/C(=C(/CC(F)(F)F)c2ccc(F)cc2Cl)c2ccc3[nH]ncc3c2)cc1 [Compound 46, (E)-4-((2-(4-((E)-2-(2-chloro-4-fluorophenyl)-4,4,4-trifluoro-1-(1H-indazol-5-yl)but-1-en-1-yl)phenoxy)ethyl)amino)-N-methylbut-2-enamide] | 13.8 ± 5.1 nM | 1.38 ± 0.44 nM |  | 
CNC(=O)/C=C/CNCCOc1ccc(/C(=C(/CC(F)(F)F)c2ccc(F)cc2Cl)c2ccc3[nH]nc(F)c3c2)cc1 [Compound 47, (E)-4-((2-(4-((E)-2-(2-chloro-4-fluorophenyl)-4,4,4-trifluoro-1-(3-fluoro-1H-indazol-5-yl)but-1-en-1-yl)phenoxy)ethyl)amino)-N-methylbut-2-enamide] | 7.25 ± 8.77 nM | 0.64 ± 0.4 nM |  | 
